Patent US20200385396A1, “Compond for treatment or prevention of obesity or diseases related to obesity, and application thereof” (SHANGHAI INSTITUTES FOR BIOLOGICAL SCIENCES, CHINESE …, priority 2017, published 2020)

Key:
NUCB2 protein = molecular target: T1, NUCB2 protein (Mus musculus, UniProt P81117); test: Competitive binding experiment: small molecules compete with Bio78 (HLY179) for NUCB2; conditions: competitor final concentration 100 μM; HLY179 20 μM
T1 construct: Immediately the mouse full-length NUCB2 protein expressed in E. coli was purified; His tag (inferred from pET-28A vector, Ni-NTA purification and His antibody); made in house; host or cells: E. coli BL21-CodonPlus (DE3)
T1 sequence (P81117 25-420): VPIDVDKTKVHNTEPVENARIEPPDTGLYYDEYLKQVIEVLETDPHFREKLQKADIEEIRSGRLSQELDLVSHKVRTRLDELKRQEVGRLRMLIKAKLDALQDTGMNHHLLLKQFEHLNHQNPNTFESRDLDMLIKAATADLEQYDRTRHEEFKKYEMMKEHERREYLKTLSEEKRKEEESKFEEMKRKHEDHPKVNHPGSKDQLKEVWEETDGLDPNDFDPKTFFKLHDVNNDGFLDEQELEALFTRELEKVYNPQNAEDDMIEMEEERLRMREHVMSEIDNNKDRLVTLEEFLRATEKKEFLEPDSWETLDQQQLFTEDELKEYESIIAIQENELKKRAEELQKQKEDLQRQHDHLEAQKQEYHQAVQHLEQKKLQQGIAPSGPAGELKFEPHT
Protocol: When doing the combining experiments, (1) pre-treating Streptavidin-Agarose, washing Streptavidin-Agarose Beads with IP buffer, and spinning it on the rotor for 10 minutes. (2) Re-binding small molecules HLY179 (20 μM) and Streptavidin-Agarose Beads, spinning it in a refrigeration house at 4° C. for 1-2 hours. (3) When the previous step was performed for about 1 hour, the protein was pre-cleared at the same time, and the protein and the washed Streptavidin-Agarose were rotated in a refrigeration house at 4° C. for 30 minutes. (4) the Streptavidin-Agarose Beads binded with HLY179 was centrifuged, the supernatant was removed, washed again with 600 μL of IP buffer (rotated at 4° C. for 3 minutes), centrifuged, and the supernatant was removed carefully. (5) the pre-cleard protein was added and rotated in a refrigeration house at 4° C. for 2 hours. Washd twice with IP buffer 800 μL, 2 minutes each time (all rotated in a refrigeration house at 4° C.). After the last wash, the supernatant was removed, 40 μL of 2*loading was added and cooked for 10 minutes, stored at −20° C. When doing competitive binding experiments, in the third step while pre-treating the protein adding different small molecule compounds, the final concentration was 100 μM, and the rest was the same. Western Blot: Preparing the appropriate concentration of SDS-PAGE gel, adding protein sample for electrophoretic separation. […]

OB/OB obese model mice = test: Weight loss in OB/OB obese model mice; format: in vivo, mouse
Text: All animal experiments were approved by the Animal Management Committee of SIBCB. C57BL/6 mice were purchased from Lingchang company (normal mice and high-fat diet-induced obese mice), C57/BLJ6 (NUCB2 gene knockout mice for breeding and background purification) were purchased from Lingchang company, OB/OB mice were purchased from Slack company. A high-fat diet (45% kcal, D12451) for inducing obese mice was purchased from Research Diets. Starting from the sixth week, it was fed with high-fat diet for 14-25 weeks. The rest of the mice used normal diet (13.5% kcal). The mice were housed in the SPF grade animal house of SIBCB. The lights were turned off for 12 hours (19: 00-07: 00), and the lights were turned on for 12 hours (07: 00-19: 00).
Mice were intraperitoneally injected with DMSO or HLY72 (dissolved in DMSO) 25 μL within 2 hours before turning off the lamp. During the intragastric experiment, the high concentration of HLY72 dissolved in DMSO was dissolved in 10% cyclodextrin, and the total volume was 100 μL Volume by gavage, so that the final concentration of DMSO was less than 10%. The diet was weighed at the 3rd hour, the 6th hour, the 12th hour, and the 24th hour respectively after the lights out. The corresponding mouse body weight was also weighed at the same time before the daily administration. The fat content of mice was measured with the magnetic resonance fat content measuring instrument of the animal platform in SIBCB.
After obtaining the above results, we now begin to use the small molecule HLY72 in obese mouse models. We first chose the obese mouse model (OB/OB) caused by Leptin mutation. An important reason for the persistence of obesity is the resistance and tolerance to regulatory factors such as Insulin and Leptin. And we are very pleased with the fact that NUCB2 can reduce the food intake of Leptin receptor mutant Zucker rats. In this regard, we can reasonably speculate that the small molecule HLY72 should also have an effect on OB/OB mice. Sure enough, the injection of HLY72 has a significant weight loss effect on OB/OB mice.

mice = test: Water consumption of mice; format: in vivo, mouse; conditions: 20 mg/kg injection, three consecutive days
Protocol: Since OB/OB mice are a diabetic mouse model, they have the characteristics of polyphagia, polydipsia, and polyuria. […] Again whether HLY72 had the effect of reducing drinking water in mice was tested. […] For the mice of high-fat diet (HFD), the three-day water consumption is only 26.38%±2.06% of the control group (FIG. 9). Therefore, HLY72, like NUCB2/Nesfatin-1, has the effect of reducing water consumption in mice.

[1] = OB/OB mice, 20 mg/kg injection, 7 consecutive days

In the case of `C=Cc1cccc2c1N(C)Cc1cc3c(cc1-2)OCO3` [HLY72], the “compete with Bio78 for binding to NUCB2” value (NUCB2 protein) is reported as “can also compete”, the urine of mice (OB/OB obese model mice; OB/OB mice injected with HLY72) is reported as “significantly reduced” and the “daily food intake compared with the DMSO group” value (OB/OB obese model mice; OB/OB mice, 20 mg/kg injection) is reported as “significantly reduced”. The “body weight after treatment” value (OB/OB obese model mice; [1]) was 37.73 ± 0.87 g, the “reduction in total body weight” value (OB/OB obese model mice; [1]) was 10.15%±0.87% and the “body weight before treatment” value (OB/OB obese model mice; OB/OB mice, 20 mg/kg injection, start) was 42.02 ± 1.01 g. For the same compound, the “three-day water consumption of treated mice, percent of control group” value (mice; high-fat diet (HFD) mice) was 26.38%±2.06% and the “three-day water consumption of treated mice, percent of control group” value (mice; normal chow diet (NCD) mice) was 39.68%±2.29%.
